Laboratory results as given in the supplement of paper PMC10307832.

Tests used:
Test in all cases: relative viability (nuclei count vs DMSO), 5 days (fraction); higher = more cells survive
[1] = compound: C(C(=O)C(=O)O)Br [Bromopyruvate] + Nc1ncn([C@H]2C[C@H](O)[C@@H](CO)O2)c(=O)n1 [Decitabine] (partner 2 µM)
Outline: (§1)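 One day after seeding in 1536-well plates, lung cancer cell lines were dosed by pin tool. Dosing was either single-drug or a fixed anchor-drug dose plus five library-drug doses (not always all listed) in √10 steps. After 5 days, nuclei were stained in one fix-and-stain step and counted on 4× images, and relative viability is the nuclei count of treated wells over that of vehicle wells, given as the median of duplicate plates.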

[2] = compound: C(C(=O)C(=O)O)Br [Bromopyruvate] + N=C(N)NC(=N)NCCc1ccccc1 [Phenformin] (partner 250 µM)
Outline: as §1

[3] = compound: C(C(=O)C(=O)O)Br [Bromopyruvate] + CC(=O)Nc1cccc(-n2c(=O)n(C3CC3)c(=O)c3c(Nc4ccc(I)cc4F)n(C)c(=O)c(C)c32)c1 [Trametinib] (partner 0.02 µM)
Outline: as §1

[4] = compound: CC(O)(CS(=O)(=O)c1ccc(F)cc1)C(=O)Nc1ccc(C#N)c(C(F)(F)F)c1 [Bicalutamide] + CC1(C)CCC(c2ccc(Cl)cc2)=C(CN2CCN(c3ccc(C(=O)NS(=O)(=O)c4ccc(N[C@H](CCN5CCOCC5)CSc5ccccc5)c(S(=O)(=O)C(F)(F)F)c4)cc3)CC2)C1 [Navitoclax] (partner 0.5 µM)
Outline: as §1

Cell Line	relative viability ([1]; first compound 1 µM)	relative viability ([1]; first compound 3.162 µM)	relative viability ([1]; first compound 10 µM)	relative viability ([1]; first compound 31.62 µM)	relative viability ([1]; first compound 100 µM)	relative viability ([2]; first compound 1 µM)	relative viability ([2]; first compound 3.162 µM)	relative viability ([2]; first compound 10 µM)	relative viability ([2]; first compound 31.62 µM)	relative viability ([2]; first compound 100 µM)	relative viability ([3]; first compound 1 µM)	relative viability ([3]; first compound 3.162 µM)	relative viability ([3]; first compound 10 µM)	relative viability ([3]; first compound 31.62 µM)	relative viability ([3]; first compound 100 µM)	relative viability ([4]; first compound 0.08 µM)	relative viability ([4]; first compound 0.253 µM)	relative viability ([4]; first compound 0.8 µM)	relative viability ([4]; first compound 2.53 µM)
NCI-H522	0.604	0.705	0.619	0.699	0.603	0.599	0.654	0.641	0.679	0.574	0.697	0.671	0.778	0.92	0.757	–	–	–	–
HCC-15	0.614	0.625	0.615	0.659	0.568	0.472	0.5	0.521	0.466	0.456	0.349	0.385	0.386	0.369	0.393	0.757	0.685	0.761	0.712
A-427	0.581	0.567	0.612	0.631	0.568	0.417	0.353	0.25	0.335	0.261	0.73	0.766	0.838	0.767	0.771	0.986	1.03	0.98	0.927
NCI-H23	0.299	0.294	0.308	0.277	0.303	0.778	0.842	0.837	0.809	0.857	0.371	0.375	0.346	0.354	0.336	0.86	0.642	0.949	0.754
NCI-H1734	0.505	0.507	0.629	0.502	0.457	0.342	0.471	0.513	0.392	0.385	0.743	0.765	0.64	0.717	0.66	0.862	0.719	1.13	0.786
NCI-H1993	0.612	0.609	0.628	0.655	0.464	0.492	0.488	0.547	0.495	0.501	0.52	0.561	0.493	0.533	0.535	–	0.896	0.912	1.02
PC-3 [JPC-3]	0.866	–	0.91	–	0.738	0.495	0.488	0.458	0.493	0.493	0.734	–	0.787	–	0.734	0.867	0.775	0.869	0.91
NCI-H1915	0.258	0.273	0.268	0.249	0.271	0.363	0.371	0.378	0.379	0.383	0.308	0.293	0.296	0.342	0.349	0.815	0.76	0.804	0.812
NCI-H1666	0.679	0.738	0.835	0.66	0.705	0.598	0.582	0.606	0.605	0.496	0.865	0.858	0.825	0.852	0.911	0.939	1.14	0.889	0.93
HCC-366	0.358	0.302	0.43	0.348	0.351	0.592	0.649	0.635	0.597	0.648	0.361	0.322	0.41	0.359	0.322	1.08	1.03	1.17	1.02
SK-MES-1	0.362	0.494	0.353	0.427	0.337	0.653	0.651	0.671	0.658	0.668	0.631	0.547	0.511	0.578	0.574	1.13	1.19	1.26	1.17
NCI-H727	0.815	1.09	0.966	0.915	0.871	0.607	0.778	0.578	0.622	0.527	0.42	0.376	0.461	0.428	0.36	0.457	0.415	0.405	0.373
RERF-LC-KJ	0.738	0.745	0.791	0.794	0.72	0.4	0.438	0.514	0.429	0.416	0.657	0.984	0.921	0.85	0.909	0.951	0.98	0.793	0.799
NCI-H1623	–	–	–	–	–	0.545	0.654	0.635	0.588	0.625	–	–	–	–	–	–	–	–	–
Calu-6	–	–	–	–	–	–	–	–	–	–	–	–	–	–	–	0.895	0.827	0.842	0.705
LC-2-ad	0.856	0.726	0.797	0.872	0.695	0.564	0.621	0.576	0.599	0.525	0.892	0.904	0.872	0.958	0.945	0.484	0.484	0.449	0.475
